In PMC12531613, “Synthesis and Biological Evaluation of Novel 2‐(Piperidin‐4‐yl)‐1,2,3,4‐tetrahydroisoquinoline and 2‐(Piperidin‐4‐yl)decahydroisoquinoline Antimycotics” (Archiv Der Pharmazie, 2025):
≈ marks a conversion by molar mass, not a printed value. Like-named read-outs stand apart in the source and are kept apart here.

Tests used:
Yarrowia lipolytica = experiment: MIC100 microdilution assay against Yarrowia lipolytica; assay type: cell-based
Method: In previous research we found a good correlation between MIC values against Yarrowia lipolytica and pathogenic Candida species.
Determination of MICs against Yarrowia lipolytica (DSMZ, Braunschweig, Germany) was carried out according to lit. Yarrowia lipolytica was cultivated in AC‐agar (Sigma Aldrich). Concentration of yeast cells was determined by photometer and adjusted to a turbidity of 0.5 according to McFarland standard at 600 nm. All substances were dissolved in DMSO or methanol.
Determination of MICs (minimal inhibitory concentration) against Yarrowia lipolytica was carried out according to Lit.^[13] Concentration of yeast cells was determined by photometer and adjusted to a turbitity of 0.5 according to McFarland Standard.

Candida isolates = experiment: MIC90 against Candida isolates; assay type: cell-based; conditions: span over the Candida isolates tested
Method: (§1) Determination of MICs (minimal inhibitory concentration) against Candida species was carried out according to the European Committee of Antifungal Susceptibility Testing. Concentration of yeast cells was determined by photometer and adjusted to a turbidity of 0.5 according to McFarland standard. MIC90 was determined by microdilution plate reader (Sunrise Tecan) at 450 nm, after 24 h incubation at 37°C. MIC90 was defined as the minimal concentration of chemical causing 90% growth inhibition, respectively. Growth inhibition of molds was determined by eye and microscopically, following EUCAST guidelines. All substances were dissolved in DMSO and diluted in RPMI 1640 medium, containing 2% glucose. All assays were carried out twice.

R. arrhizus (oryzae) = experiment: MIC90 growth inhibition of molds (EUCAST), R. arrhizus (oryzae); assay type: cell-based; conditions: Rhizopus arrhizus
Method: as §1

molds = experiment: Growth inhibition of molds; assay type: cell-based; conditions: against the molds
Method: as §1

A. fumigatus (R16) = experiment: MIC90 growth inhibition of molds (EUCAST), A. fumigatus (R16); assay type: cell-based; conditions: Aspergillus fumigatus
Method: as §1

A. fumigatus (R7) = experiment: MIC90 growth inhibition of molds (EUCAST), A. fumigatus (R7); assay type: cell-based; conditions: Aspergillus fumigatus
Method: as §1

R. microsporus = experiment: MIC90 growth inhibition of molds (EUCAST), R. microsporus; assay type: cell-based; conditions: Rhizopus microsporus
Method: as §1

C. glabrata = experiment: MIC90 microdilution (EUCAST), C. glabrata; assay type: cell-based; conditions: Nakaseomyces glabratus, 24 h
Method: as §1

[1] = MTT cytotoxicity assay against HL 60 cells; assay type: cell-based; conditions: human, HL-60 cells (human leukemia cells); HL 60 cell line; MTT assay; read-out: IC50 cytotoxicity
Method: The cytotoxicity of the active compounds was checked in an MTT assay against human HL 60 cells. […] Although, this corresponds to the MIC range that would be needed in treatment, the values are within the range observed for commonly used antimycotics such as amorolfine and posaconazole. All active compounds were evaluated for their biopharmaceutical behavior and drug‐likeness using the online program SwissADME [26] and should show oral bioavailability according to the Lipinski rules of five.
HL‐60 cells (human leukemia cells, DSM No. ACC3) were obtained from DSMZ (German Collection of Microorganisms and Cell Cultures, Braunschweig, Germany) and cultivated in RPMI 1640 medium with 10% fetal bovine serum (FBS), both from PAA Laboratories, Cölbe, Germany) without the addition of antibiotics at 37°C in a humidified atmosphere containing 5% CO2. The assay was performed according to lit.

A. fumigatus (A65) = experiment: MIC90 growth inhibition of molds (EUCAST), A. fumigatus (A65); assay type: cell-based; conditions: Aspergillus fumigatus, RPMI 1640, 2% glucose, read by eye and microscopically
Method: Determination of MICs (minimal inhibitory concentration) against Candida species was carried out according to the European Committee of Antifungal Susceptibility Testing. Concentration of yeast cells was determined by photometer and adjusted to a turbidity of 0.5 according to McFarland standard. […] Growth inhibition of molds was determined by eye and microscopically, following EUCAST guidelines. […] All assays were carried out twice.

Candida species = conditions: reported values; cited from earlier work
C. albicans = experiment: MIC90 microdilution (EUCAST), C. albicans; assay type: cell-based; conditions: Candida albicans, 24 h
Method: as §1

C. krusei = experiment: MIC90 microdilution (EUCAST), C. krusei; assay type: cell-based; conditions: Pichia kudriavzevii, 24 h
Method: as §1

[2] = 48 h, read-out: Biological Activity MIC Yarrowia lipolytica
[3] = read-out: MIC100 (molar value in brackets)

| SMILES | MIC (Yarrowia lipolytica; [2]) [µg/mL] | MIC (Yarrowia lipolytica; 48 h, read-out: MIC100) [µg/mL] | MIC (Yarrowia lipolytica; [3]) [µM] | MIC90 (Candida isolates) [µg/mL] | MIC90 (R. arrhizus (oryzae)) [µg/mL] | growth inhibition at concentrations (molds) (molds) [µg/mL] | MIC90 (A. fumigatus (R16)) [µg/mL] | MIC90 (A. fumigatus (R7)) [µg/mL] | MIC90 (R. microsporus) [µg/mL] | MIC90 (C. glabrata) [µg/mL] | IC50 [1] [µg/mL] | MIC90 (A. fumigatus (A65)) [µg/mL] | MIC values against Candida species (Candida species) [µg/mL] | MIC90 (C. albicans) [µg/mL] | MIC90 (C. krusei) [µg/mL] |
| --- | --- | --- | --- | --- | --- | --- | --- | --- | --- | --- | --- | --- | --- | --- | --- |
| CCCCCCCCCCCCN1CCC(N2CCC3CCCCC3C2)CC1 (racemic) [6i, (±)‐2‐(1‐Dodecylpiperidin‐4‐yl)‐decahydroisoquinoline] | 1.6 | 1.6 | 4.1 | 2 to 16 (≈ 5.12 to 41 µM) | > 32 | 16 to 32 | 32 (≈ 81.9 µM) | 32 (≈ 81.9 µM) | > 32 | 16 (≈ 41 µM) | 23 (≈ 58.9 µM) | 32 (≈ 81.9 µM) | – | – | – |
| CC(Cc1ccc(C(C)(C)C)cc1)CN1CCCCC1 (stereo not shown) [fenpropidin] | – | – | – | – | – | – | – | – | – | – | – | – | 0.25 to 1 | – | – |
| CC(C)=CCC/C(C)=C/CN1CCC(N2CCC3CCCCC3C2)CC1 (stereo not shown) [6l, 2‐{1‐[(2E)‐3,7‐Dimethylocta‐2,6‐dien‐1‐yl]piperidin‐4‐yl}‐decahydroisoquinoline] | 12.5 | 12.5 | 34.9 | – | 16 (≈ 44.6 µM) | 16 to 32 | > 32 | > 32 | > 32 | > 32 | 26 (≈ 72.5 µM) | > 32 | – | 32 (≈ 89.2 µM) | 4 (≈ 11.2 µM) |
| CCCCCCCCCCCCN1CCC(N2CCc3cc(OC)c(OC)cc3C2)CC1 [6f, 2‐(1‐Dodecylpiperidin‐4‐yl)‐6,7‐dimethoxy‐1,2,3,4‐tetrahydroisoquinoline] | 3.1 | 3.1 | 7 | 2 to 16 (≈ 4.5 to 36 µM) | > 32 | – | > 32 | > 32 | > 32 | – | 6 (≈ 13.5 µM) | > 32 | – | 4 (≈ 8.99 µM) | 2 (≈ 4.5 µM) |
| CC(C)=CCCC(C)CCN1CCC(N2CCC3CCCCC3C2)CC1 (racemic) [6k, (±)‐2‐[1‐(3,7‐Dimethyloct‐6‐en‐1‐yl)‐piperidin‐4‐yl]‐decahydroisoquinoline] | 6.3 | 6.3 | 17.5 | – | 16 (≈ 44.4 µM) | 16 to 32 | > 32 | > 32 | > 32 | > 32 | 17 (≈ 47.1 µM) | > 32 | – | 16 (≈ 44.4 µM) | 8 (≈ 22.2 µM) |
| CCCCCCCCN1CCC(N2CCc3cc(OC)c(OC)cc3C2)CC1 [6e, 6,7‐Dimethoxy‐2‐(1‐octylpiperidin‐4‐yl)‐1,2,3,4‐tetrahydroisoquinoline] | 1.6 | 1.6 | 4.1 | – | > 32 | – | > 32 | > 32 | > 32 | > 32 | > 100 | > 32 | – | 32 (≈ 82.3 µM) | 8 (≈ 20.6 µM) |
| CC(Cc1ccc(C(C)(C)C)cc1)CN1C[C@@H](C)O[C@@H](C)C1 (stereo partly shown) [fenpropimorph] | – | – | – | – | – | – | – | – | – | – | – | – | 0.5 to 2 | – | – |
